According to patent US10316050B2, “PT (IV) complexes containing 4,4′-disubstituted-2,2′-bipyridyl and their use in cancer therapy” (THE BOARD OF REGENTS OF THE NEVADA SYSTEM OF HIGHER …, priority 2014, dated 2019):
Where two headings read alike, the source gives them in different places.

How the values were obtained:
Type in all cases: cell-based, human
[1] = test system: DU145 prostate cancer cells; details: for EC50: read-out: EC50 (effective concentration that resulted in 50% cell viability)
Outline: (§1)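 SK-BR-3 cells grown in MEM, DU145 and PC-3 cells in RPMI-1640, each with 10% FBS and 25 mM HEPES pH 7.4, plated 2 days to ~50% confluence. Exposure to increasing Pt complex or cisplatin/carboplatin concentrations for 1 h (washed, then 2 days recovery) or 48 h continuous. MTS absorbance at 490 nm after 4 h; viability as percent of control.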

H520 lung cancer cells = assay: MTS cell viability assay, H520; details: read-out: EC50 (effective concentration that resulted in 50% cell viability)
Outline: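 Viability by MTS colorimetry (A490, 4 h incubation) as % of solvent control, after 1 h pulse plus 2-day recovery or 48 h continuous drug exposure.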

[2] = test system: MCF-7 breast cancer cells; assay: MTS cell viability assay, MCF-7; details: for EC50: read-out: EC50 (effective concentration that resulted in 50% cell viability)
Outline: (§2)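 MEM + 10% FBS, 25 mM HEPES pH 7.4, 37 °C/5% CO2; 2-3.5×10³ cells/well, 2 d to ~50% confluence. Tx 1 h → wash ×3 PBS → 2 d fresh medium, or 48 h continuous. MTS 4 h, A490; % of control.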

A549 lung cancer cells = assay: MTS cell viability assay, A549; details: for EC50: read-out: EC50 (effective concentration that resulted in 50% cell viability)
Outline: as §2

[3] = test system: ZR-75-1 breast cancer cells; assay: MTS cell viability assay, ZR-75-1; details: read-out: EC50 (effective concentration that resulted in 50% cell viability)
Outline: as §2

[4] = test system: MDA-MB-231 breast cancer cells; assay: MTS cell viability assay, MDA-MB-231; details: read-out: EC50 (effective concentration that resulted in 50% cell viability)
Outline: as §2

[5] = test system: T-47D breast cancer cells; assay: MTS cell viability assay, T-47D
Outline: as §2

[6] = test system: HCC38 breast cancer cells; assay: MTS cell viability assay, HCC38; details: read-out: EC50 (effective concentration that resulted in 50% cell viability)
Outline: as §2

[7] = test system: SK-BR-3 breast cancer cells; assay: MTS cell viability assay, SK-BR-3; details: for EC50: read-out: EC50 (effective concentration that resulted in 50% cell viability)
Outline: as §1

[8] = test system: PC-3 prostate cancer cells; assay: MTS cell viability assay, PC-3; details: for EC50: read-out: EC50 (effective concentration that resulted in 50% cell viability)
Outline: as §1

[9] = ZR-75-1, 1 h treatment, Table 3
[10] = MDA-MB-231, 1 h treatment, Table 3
[11] = 1 h treatment, Table 3, read-out: EC50 (effective concentration that resulted in 50% cell viability)
[12] = 48 h, Table 5, read-out: EC50 (effective concentration that resulted in 50% cell viability)
[13] = SK-BR-3, 1 h treatment, Table 3

CC(=O)[O][Pt]([Cl])([Cl])[O]C(C)=O.CCCCCOc1ccnc(-c2cc(OCCCCC)ccn2)c1 [Pt(IV)-5C, [Pt(IV)Cl2(OAc)2(4,4′-dipentoxy-2,2′-bipyridine)]]
EC50 ([1]; DU145, 1 h treatment, Table 3): 1 ± 1 µM
EC50 ([1]; DU145, 48 h, Table 5): 0.34 ± 0.02 µM
EC50 (H520 lung cancer cells; H520, 1 h treatment, Table 3): 3 ± 1 µM
EC50 (H520 lung cancer cells; H520, 48 h, Table 5): 1 ± 0.3 µM
EC50 ([2]; MCF-7, 1 h treatment, Table 3): 2.9 ± 0.13 µM
EC50 ([2]; MCF-7, 48 h, Table 5): 2 ± 0.1 µM
EC50 (A549 lung cancer cells; A549, 1 h treatment, Table 3): 6.6 ± 0.3 µM
EC50 (A549 lung cancer cells; A549, 48 h, Table 5): 2.2 ± 0.1 µM
EC50 [3, 9]: 1.6 ± 0.1 µM
EC50 ([3]; ZR-75-1, 48 h, Table 5): 0.55 ± 0.07 µM
EC50 [4, 10]: 1.8 ± 0.1 µM
EC50 ([4]; MDA-MB-231, 48 h, Table 5): 0.26 ± 0.01 µM
EC50 [5, 11]: 2.3 ± 0.3 µM
EC50 [5, 12]: 0.248 ± 0.001 µM
EC50 ([6]; HCC38, 1 h treatment, Table 3): 3 ± 1 µM
EC50 ([6]; HCC38, 48 h, Table 5): 2.1 ± 0.3 µM
EC50 [7, 13]: 1.3 ± 0.6 µM
EC50 ([7]; SK-BR-3, 48 h, Table 5): 0.3 ± 0.03 µM
EC50 ([8]; PC-3, 1 h treatment, Table 3): 1.7 ± 0.2 µM
EC50 ([8]; PC-3, 48 h, Table 5): 0.5 ± 0.2 µM

[NH2][Pt]([NH2])([Cl])[Cl] [CDDP, Cisplatin, reference compound]
effect on cell viability (in words) ([1]; DU145, 1 hour treatment (FIG. 8A, top), up to 1 mM carboplatin, 100 μM Pt(IV)-1C, 50 μM Pt(IV)-2C): concentration dependent decrease in cell viability
EC50 ([1]; DU145, 1 h treatment, Table 2): 400 ± 100 µM
EC50 ([1]; DU145, 1 h treatment, Table 3): 400 ± 100 µM
EC50 ([1]; DU145, 48 h, Table 5): 64 ± 8 µM
EC50 ([1]; DU145, 48 h treatment, Table 4): 64 ± 8 µM
anti-proliferative activity compared to cisplatin (in words) ([1]; DU145, one and 48 hours treatment (FIG. 8H)): concentration dependent decreased in cell viability
EC50 (H520 lung cancer cells; H520, 1 h treatment, Table 2): 200 ± 17 µM
EC50 (H520 lung cancer cells; H520, 1 h treatment, Table 3): 200 ± 17 µM
EC50 (H520 lung cancer cells; H520, 48 h, Table 5): 24 ± 2 µM
EC50 (H520 lung cancer cells; H520, 48 h treatment, Table 4): 24 ± 2 µM
EC50 ([2]; MCF-7, 1 h treatment, Table 2): 900 ± 60 µM
EC50 ([2]; MCF-7, 1 h treatment, Table 3): 900 ± 100 µM
EC50 ([2]; MCF-7, 48 h, Table 5): 34 ± 1 µM
EC50 ([2]; MCF-7, 48 h treatment, Table 4): 35 ± 1 µM
EC50 (A549 lung cancer cells; A549, 1 h treatment, Table 2): 900 ± 200 µM
EC50 (A549 lung cancer cells; A549, 1 h treatment, Table 3): 900 ± 200 µM
EC50 (A549 lung cancer cells; A549, 48 h, Table 5): 500 ± 100 µM
EC50 (A549 lung cancer cells; A549, 48 h treatment, Table 4): 500 ± 100 µM
EC50 ([3]; ZR-75-1, 1 h treatment, Table 2): 260 ± 10 µM
EC50 [3, 9]: 260 ± 10 µM
EC50 ([3]; ZR-75-1, 48 h, Table 5): 30 ± 8 µM
EC50 ([3]; ZR-75-1, 48 h treatment, Table 4): 30 ± 8 µM
EC50 ([4]; MDA-MB-231, 1 h treatment, Table 2): 50 ± 4 µM
EC50 [4, 10]: 50 ± 4 µM
EC50 ([4]; MDA-MB-231, 48 h, Table 5): 21 ± 3 µM
EC50 ([4]; MDA-MB-231, 48 h treatment, Table 4): 21 ± 3 µM
EC50 ([5]; 1 h treatment, Table 2, read-out: EC50 (effective concentration that resulted in 50% cell viability)): 900 ± 100 µM
EC50 [5, 11]: 900 ± 100 µM
EC50 [5, 12]: 35 ± 6 µM
EC50 ([5]; 48 h treatment, Table 4, read-out: EC50 (effective concentration that resulted in 50% cell viability)): 35 ± 6 µM
EC50 ([6]; HCC38, 1 h treatment, Table 2): 300 ± 30 µM
EC50 ([6]; HCC38, 1 h treatment, Table 3): 300 ± 30 µM
EC50 ([6]; HCC38, 48 h, Table 5): 30 ± 8 µM
EC50 ([6]; HCC38, 48 h treatment, Table 4): 30 ± 8 µM
EC50 ([7]; SK-BR-3, 1 h treatment, Table 2): 420 ± 80 µM
EC50 [7, 13]: 420 ± 80 µM
EC50 ([7]; SK-BR-3, 48 h, Table 5): 23 ± 8 µM
EC50 ([7]; SK-BR-3, 48 h treatment, Table 4): 23 ± 6 µM
anti-proliferative activity compared to cisplatin (in words) ([7]; SK-BR-3, one and 48 hours treatment (FIG. 8G)): concentration dependent decreased in cell viability
EC50 ([8]; PC-3, 1 h treatment, Table 2): 200 ± 20 µM
EC50 ([8]; PC-3, 1 h treatment, Table 3): 200 ± 20 µM
EC50 ([8]; PC-3, 48 h, Table 5): 30 ± 1 µM
EC50 ([8]; PC-3, 48 h treatment, Table 4): 30 ± 1 µM
anti-proliferative activity compared to cisplatin (in words) ([8]; PC-3, one and 48 hours treatment (FIG. 8I)): concentration dependent decreased in cell viability

[Pt(IV)Cl2(OAc)2(4,4′-dibutoxy-2,2′-bipyridine)] [Pt(IV)-4C]
EC50 ([1]; DU145, 1 h treatment, Table 3): 8 ± 7 µM
EC50 ([1]; DU145, 48 h, Table 5): 0.9 ± 0.2 µM
EC50 (H520 lung cancer cells; H520, 1 h treatment, Table 3): 13 ± 5 µM
EC50 (H520 lung cancer cells; H520, 48 h, Table 5): 2.2 ± 0.1 µM
effect on cell viability (in words) ([2]; MCF-7, 1 hour treatment, at the concentrations tested (FIG. 8F)): did not have any effect
EC50 ([2]; MCF-7, 1 h treatment, Table 3): > 25 µM
EC50 ([2]; MCF-7, 48 h, Table 5): 2.2 ± 0.1 µM
effect on cell viability (in words) (A549 lung cancer cells; A549, 1 hour treatment, at the concentrations tested (FIG. 8E)): did not have any effect
EC50 (A549 lung cancer cells; A549, 1 h treatment, Table 3): > 25 µM
EC50 (A549 lung cancer cells; A549, 48 h, Table 5): 14 ± 1 µM
EC50 [3, 9]: 2.9 ± 0.3 µM
EC50 ([3]; ZR-75-1, 48 h, Table 5): 0.7 ± 0.2 µM
EC50 [4, 10]: 2.8 ± 0.1 µM
EC50 ([4]; MDA-MB-231, 48 h, Table 5): 1 ± 0.2 µM
EC50 [5, 11]: 10 ± 1 µM
EC50 [5, 12]: 0.33 ± 0.07 µM
EC50 ([6]; HCC38, 1 h treatment, Table 3): 17 ± 3 µM
EC50 ([6]; HCC38, 48 h, Table 5): 2.1 ± 0.2 µM
EC50 [7, 13]: 4 ± 0.7 µM
EC50 ([7]; SK-BR-3, 48 h, Table 5): 0.44 ± 0.02 µM
EC50 ([8]; PC-3, 1 h treatment, Table 3): 5 ± 3 µM
EC50 ([8]; PC-3, 48 h, Table 5): 1.1 ± 0.4 µM
